Results as given in ChEMBL document CHEMBL1151486, “Decomposition of FK 409, a new vasodilator: Identification of nitric oxide as a metabolite” (Bioorg Med Chem Lett, 1995).

Species: Oryctolagus cuniculus
Assay: Evaluation of vasodilatory activity in Isolated rabbit aorta strips
Format: functional

| IC50 | SMILES |
| --- | --- |
| 0.15 µM | CC/C(=C\C(=N/O)C(N)=O)C(C)[N+](=O)[O-] (configuration not stated) |
| 7 µM | CC/C(=C\C(=O)C(N)=O)C(C)[N+](=O)[O-] (configuration not stated) |
